The source made the active and inactive calls. How the calls were made is not given here.
Test system: VEGF-stimulated ADSC/ECFC co-culture, nuclear area imaging
Test: nuclear area loss in endothelial-stromal co-culture, dose response, cell-based, VEGF stimulation, IC50 (AID 1117324)

SMILES	IC50
CCCCC(CC)CN=C(N)NC(N)=NCCCCCCN=C(N)NC(N)=NCC(CC)CCCC (stereo not drawn)	> 10 µM (inactive)
COCCOC(=O)C1=C(C)NC(C)=C(C(=O)OC/C=C/c2ccccc2)C1c1cccc([N+](=O)[O-])c1 (stereo not drawn)	> 10 µM (inactive)
C[C@H]1O[C@@H](O[C@H]2[C@@H](O)C[C@H](O[C@H]3[C@@H](O)C[C@H](O[C@H]4CC[C@@]5(C)[C@H](CC[C@@H]6[C@@H]5CC[C@]5(C)[C@@H](C7=CC(=O)OC7)CC[C@]65O)C4)O[C@@H]3C)O[C@@H]2C)C[C@H](O)[C@@H]1O	0.103 µM
CCC1Nc2cc(Cl)c(S(N)(=O)=O)cc2S(=O)(=O)N1 (stereo not drawn)	> 10 µM (inactive)
Oc1c(I)cc(Cl)c2cccnc12	> 10 µM (inactive)
CCCCN(CCCC)CCC(O)c1cc2c(Cl)cc(Cl)cc2c2cc(C(F)(F)F)ccc12 (stereo not drawn)	> 10 µM (inactive)
Cc1cc(=O)c2c(O)c3c(O)cc(=O)c4c3c3c(cc(O)c1c23)C(C)(C)C=4O	2.07 µM
O=c1[nH]cc(F)c(=O)[nH]1	> 10 µM (inactive)
O=C1C2CC=CCC2C(=O)N1SC(Cl)(Cl)Cl (stereo not drawn)	> 10 µM (inactive)
CN1CCN(C2Cc3ccccc3Sc3ccc(Cl)cc32)CC1 (stereo not drawn)	> 10 µM (inactive)
CCCCCCCCOc1ccccc1C(=O)Nc1ccc(C(=O)OCC[N+](C)(CC)CC)cc1	8.47 µM (inactive)
C[C@@]12C(=O)OC(=O)[C@]1(C)C1CCC2O1	8.33 µM (inactive)
CC[C@H](C)C(=O)O[C@H]1C[C@@H](C)C=C2C=C[C@H](C)[C@H](CC[C@@H]3C[C@@H](O)CC(=O)O3)[C@H]21	> 10 µM (inactive)
CCCCCCCCCCCCCCCCCC[N+](C)(C)CCC[Si](OC)(OC)OC	> 10 µM (inactive)
COC(=O)Nc1nc2ccc(Sc3ccccc3)cc2[nH]1	> 10 µM (inactive)
CCOC(=O)[C@H](CCc1ccccc1)N[C@@H](C)C(=O)N1Cc2cc(OC)c(OC)cc2C[C@H]1C(=O)O	> 10 µM (inactive)
O=C1c2c(O)cccc2Cc2cccc(O)c21	> 10 µM (inactive)
NC(=O)n1c(O)c(C(=O)c2cccs2)c2cc(Cl)ccc21	> 10 µM (inactive)
CC(C)(CO)[C@@H](O)C(=O)NCCC(=O)NCCSSCCNC(=O)CCNC(=O)[C@H](O)C(C)(C)CO	> 10 µM (inactive)
C=CCN1CC[C@]23CCCC[C@H]2[C@H]1Cc1ccc(O)cc13	> 10 µM (inactive)

SMILES	IC50
CN(C)/N=N/c1nc[nH]c1C(N)=O	> 10 µM (inactive)
CC[C@@H]([C@H](C)O)n1ncn(-c2ccc(N3CCN(c4ccc(OC[C@@H]5CO[C@@](Cn6cncn6)(c6ccc(F)cc6F)C5)cc4)CC3)cc2)c1=O	> 10 µM (inactive)
CCC1=C[C@@H]2CN(C1)Cc1c([nH]c3ccccc13)[C@@](C(=O)OC)(c1cc3c(cc1OC)N(C)[C@H]1[C@@](O)(C(=O)OC)[C@H](OC(C)=O)[C@]4(CC)C=CCN5CC[C@]31[C@@H]54)C2	> 10 µM (inactive)
NC(=O)c1cccnc1	> 10 µM (inactive)
O=C(CCN1CCC(c2ccccc2)C1)c1ccc2c(c1)OCCO2 (stereo not drawn)	> 10 µM (inactive)
CCC(C(=O)OCCOCCN(CC)CC)c1ccccc1 (stereo not drawn)	> 10 µM (inactive)
CC(=O)N(CC(O)CN(C(C)=O)c1c(I)c(C(=O)NCC(O)CO)c(I)c(C(=O)NCC(O)CO)c1I)c1c(I)c(C(=O)NCC(O)CO)c(I)c(C(=O)NCC(O)CO)c1I (stereo not drawn)	> 10 µM (inactive)
CCCCCCCC(=O)OCC(COC(=O)CCCCCCC)OC(=O)CCCCCCC	> 10 µM (inactive)
O=C1NCN(c2ccccc2)C12CCN(CCCC(c1ccc(F)cc1)c1ccc(F)cc1)CC2	8.09 µM (inactive)
CCCCCCCCCCCCCCCC[N+](C)(C)Cc1ccccc1	> 10 µM (inactive)
Cn1cc(S(C)=O)c(=O)c2ccc(F)cc21 (stereo not drawn)	> 10 µM (inactive)
Oc1ccc(Cl)cc1Cc1cc(Cl)ccc1O	6 µM (inactive)
O=c1[nH]c(=O)n([C@H]2C[C@H](O)[C@@H](CO)O2)cc1Br	> 10 µM (inactive)
COc1cccc2c1C(=O)c1c(O)c3c(c(O)c1C2=O)C[C@@](O)(C(=O)CO)CC3OC1CC(N2CCOC(OC)C2)C(O)C(C)O1 (stereo partly drawn)	0.0442 µM
CCN(CC)CCCC(C)Nc1c2ccc(Cl)cc2nc2ccc(OC)cc12 (stereo not drawn)	> 10 µM (inactive)
CC(=O)Oc1ccc(C2(c3ccc(OC(C)=O)cc3)C(=O)Nc3ccccc32)cc1	> 10 µM (inactive)
CCOC(=O)c1ccccc1C(=O)OCC	> 10 µM (inactive)
CC(C)=CCNc1ncnc2c1ncn2[C@@H]1O[C@H](CO)[C@@H](O)[C@H]1O	> 10 µM (inactive)
O=C(O)c1ccc2[nH]cc(CCCCN3CC=C(c4ccccc4)CC3)c2c1	> 10 µM (inactive)
Oc1c(I)cc(I)c2cccnc12	> 10 µM (inactive)

SMILES	IC50
CN(C)CCOC1=Cc2ccccc2Sc2ccc(Cl)cc21	> 10 µM (inactive)
C[C@H]1O[C@@H](O[C@H]2CC[C@@]3(C)[C@H](CC[C@@H]4[C@@H]3C[C@@H](O)[C@]3(C)[C@@H](C5=CC(=O)OC5)CC[C@]43O)C2)C[C@H](O)[C@@H]1O[C@H]1C[C@H](O)[C@H](O[C@H]2C[C@H](O)[C@H](O[C@@H]3O[C@H](CO)[C@@H](O)[C@H](O)[C@H]3O)[C@@H](C)O2)[C@@H](C)O1	0.299 µM
CC(=O)O[C@H]1C[C@H](O[C@H]2[C@@H](O)C[C@H](O[C@@H]3[C@@H](O)C[C@H](O[C@H]4CC[C@@]5(C)[C@H](CC[C@@H]6[C@H]5C[C@@H](O)[C@]5(C)[C@@H](C7=CC(=O)OC7)CC[C@]65O)C4)O[C@@H]3C)O[C@@H]2C)O[C@H](C)[C@H]1O[C@@H]1O[C@H](CO)[C@@H](O)[C@H](O)[C@@H]1O	0.279 µM
CCc1oc2ccccc2c1C(=O)c1cc(I)c(O)c(I)c1	> 10 µM (inactive)
COC(=O)C1=C(C)NC(C)=C(C(=O)OC(C)(C)CN(C)CCC(c2ccccc2)c2ccccc2)C1c1cccc([N+](=O)[O-])c1 (stereo not drawn)	> 10 µM (inactive)
Oc1c(Br)cc(Br)c2cccnc12	> 10 µM (inactive)
CO[C@@H]1[C@@H](OC)[C@H](C)[C@@](O)(CC(=O)O)O[C@H]1[C@H](C)[C@H]1O[C@@]2(CC[C@@](C)([C@H]3CC[C@@](C)([C@@H]4O[C@@H]([C@H]5O[C@](C)(O)[C@H](C)C[C@@H]5C)C[C@@H]4OC4C[C@H](OC)[C@@H](OC)[C@H](C)O4)O3)O2)C[C@H](O)[C@H]1C (stereo partly drawn)	2.57 µM
Cc1cccc(Nc2cc(Cl)nc(SCC(=O)O)n2)c1C	> 10 µM (inactive)
COC1=C(OC)C(=O)C(CCCCCCCCCCO)=C(C)C1=O	> 10 µM (inactive)
O=C(Nc1ccc([N+](=O)[O-])cc1Cl)c1cc(Cl)ccc1O	5.81 µM (inactive)
CC[N+](CC)(CC)CCOc1ccc(/C=C/c2ccccc2)cc1	> 10 µM (inactive)
CCCCCCCC/C=C\CCCCCCCCN	9.13 µM (inactive)
Cc1c(C)c2c(c(C)c1O)CCC(C)(COc1ccc(CC3SC(=O)NC3=O)cc1)O2 (stereo not drawn)	> 10 µM (inactive)
Oc1cc(Cl)ccc1Oc1ccc(Cl)cc1Cl	8.1 µM (inactive)
CCCCCCCCCCCC[N+](C)(C)CCOc1ccccc1	7.29 µM (inactive)
CC(C)=CCOc1ccc(/C=C/C(=O)c2ccc(OCC=C(C)C)cc2OCC(=O)O)cc1	> 10 µM (inactive)
Cc1c(O)cc2c(c1C)O[C@](C)(CCC[C@H](C)CCC[C@H](C)CCCC(C)C)CC2	> 10 µM (inactive)
Cc1cc(O)c2c(O)c3c(O)cccc3cc2c1	> 10 µM (inactive)

Source: PubChem BioAssay AID1117324 (Cheminformatics & Chemogenomics Research Group (CCRG), …, 2015)
